# Reference: US12233089B2, “Foods to promote better health and/or to maintain homeostasis and method of production thereof” (Vector Vitale IP LLC, priority 2021, dated 2025)
# Where a name gives a salt, the structure may show the parent alone. Read-outs that look alike come from different tables or passages of the source. Marks after values point to notes of the source that are not given here.
# Columns and labels:
# S. aureus ATCC 25923 [1] = assay: Minimum bactericidal concentration (MBC), S. aureus; format: cell-based
# Method: (§1) To evaluate the bactericidal action of the antibacterial composition based on light isotope ^64Zne the minimum bactericidal concentration (MBC) was determined by plating out 0.1 ml of the contents of each tube containing the antibacterial composition on Mueller-Hinton medium. The incubation was at 37° C. for 24 h.
# (§2) The MBC of the test samples was determined as the lowest concentration at which there was no growth on Mueller-Hinton agar medium.
# (§3) The conditions of the experiment were like those for Zn-64 compound.
# E. coli ATCC 25922 [2] = assay: Minimum bactericidal concentration (MBC), E. coli; format: cell-based
# Method: as §1, §2, §3
# P. aeruginosa ATCC 27853 [3] = assay: Minimum bactericidal concentration (MBC), P. aeruginosa; format: cell-based
# Method: as §1, §2, §3
# S. aureus ATCC 25923 [4] = assay: MIC (bacteriostatic activity), S. aureus; format: cell-based; conditions: Table 5
# Description: as §3
# E. coli ATCC 25922 [5] = assay: MIC (bacteriostatic activity), E. coli; format: cell-based; conditions: Table 5
# Description: as §3
# P. aeruginosa ATCC 27853 [6] = assay: MIC (bacteriostatic activity), P. aeruginosa; format: cell-based
# Description: as §3
# influenza virus = assay: In vitro reproduction of influenza virus; format: cell-based
# herpes virus = format: cell-based; conditions: in vitro
# [7] = tested on: BVDV—bovine viral diarrhea virus; format: cell-based; conditions: in vitro
# [8] = tested on: MM-4 mouse melanoma cells; assay: In vitro analysis of viability of MM-4 mouse melanoma cells; format: cell-based
# Description: A second study was done on mouse model of lymphocytic leukemia, strain of L1210 leukemia cells, mouse melanoma model (MM-4 cell line derived from mouse melanoma cells of strain B16). Typical results are below.
# MM-4 cells = assay: Immunocytochemistry of Bcl-2, Bax and p53 expression in MM-4 cells; format: cell-based, mouse
# [9] = tested on: animals on a high-fat diet (DIO); assay: Diet induced obesity model (animals on a high-fat diet); format: in vivo, rats
# Description: The preclinical study of the effects of Zn-64 Asp on key pathogenetic links in the development and progression of obesity in diet-induced obesity models provides strong ground for efficient use of Zn-64 Asp as therapeutic agent in the treatment of overweight and obese patients.
# [10] = tested on: pro-inflammatory (IL-1, IL-6, IL-12, IFN-γ) and anti-inflammatory (IL-4, IL-10, TGF) cytokines; assay: Cytokine profile in the serum of experimental animals; format: in vivo, rats; conditions: M ± m, n = 10
# Description: As mentioned above, the pathogenesis of obesity is accompanied by a systemic chronic inflammatory process, the intensity of which can be assessed by the serum levels of pro- and anti-inflammatory cytokines.
# type 1 diabetes = assay: Development of type 1 diabetes in vivo
# [11] = tested on: rats with LPS-induced Parkinson's disease; assay: LPS-induced Parkinson's disease in rats; format: in vivo
# Description: Effects of ^64Zn-KLS-1 on Local and Systemic Immune Reactivity, Behavioural and Motor Functions in Rats with LPS-Induced Experimental Parkinsonism
# [12] = tested on: rat models of Aβ1-40-induced AD; assay: Rat model of Alzheimer's disease induced by infusion of Aβ 1-40; format: in vivo, rats
# Description: The Effect of ^64Zn-Asp on Cognitive Symptomatology in Rats with Different Models of Alzheimer's Disease Induced by Infusion of a Mix of Beta-Amyloid Peptides
# [13] = Glucose and pancreatic islets in vivo, model not given (section on obesity and type 1 & 2 diabetes)
# [14] = tested on: pro-inflammatory (IL-1, IL-6, IL-12, IFN-γ) and anti-inflammatory (IL-4, IL-10, TGF) cytokines; conditions: adipose tissue, M ± m, n = 10
# Description: Given the above, the next phase was to find out whether the administration of Zn-64 stable isotope in aspartate form influences the cytokine profile in obese animals.
# Epstein-Barr virus [15] = assay: Cytotoxicity and antiviral activity against Epstein-Barr virus
# MMP-2 = assay: Activities of latent and active forms of metalloproteinase 2 in MM-4 cells
# MMP-9 = assay: Activities of latent and active forms of metalloproteinase 9 in MM-4 cells; conditions: 16.69 μg/ml
# RNA and DNA synthesis = assay: Inhibition of RNA and DNA synthesis; format: cell-based
# Epstein-Barr virus [16] = tested on: Epstein-Barr virus
# [17] = LPS-induced Parkinson's disease
# [18] = animals with AD, therapeutic administration
structure (smiles),measurement,setting,value
"O=S(=O)([O-])[O-].[Zn+2] [Natural zinc - sulfate, reference compound]",MBC,S. aureus ATCC 25923 [1]; Table 6,>750 mcg zinc/ml
same,MBC,E. coli ATCC 25922 [2]; Table 6,>750 mcg zinc/ml
same,MBC,P. aeruginosa ATCC 27853 [3]; Table 6,>750 mcg zinc/ml
same,MIC,S. aureus ATCC 25923 [4],93.75 zinc mcg/ml
same,MIC,E. coli ATCC 25922 [5],187.5 zinc mcg/ml
same,MIC,P. aeruginosa ATCC 27853 [6]; Table 5,750 zinc mcg/ml
"N[C@@H](CCC(=O)[O-])C(=O)[O-].[Zn+2] [Zinc glutamate, reference compound]",reproduction of influenza virus,influenza virus,effectively inhibited
same,reproduction of herpes virus,herpes virus,effectively inhibited
same,reproduction of surrogate model of HCV (BVDV) virus,[7],effectively inhibited
"NC(CC(=O)[O-])C(=O)[O-].[64Zn+2] (centres unmarked) [Zn64 Aspartate, ^64Zne aspartate]",suppressed proliferation of MM-4 cells compared with the control,[8]; 16.69 μg/ml,22.2%
same,reduction in the number of live melanoma cells compared with the control,[8]; 25.03 μg/ml,49.2%
same,IC20,[8]; MM-4 cells,16.69 µg/mL
same,IC50,[8]; MM-4 cells,25.03 µg/mL
same,decrease in the expression of Bcl-2 vs. control,MM-4 cells; 16.69 μg/ml,69.5%
same,expression of pro-apoptotic proteins Bax and p53,MM-4 cells; 16.69 μg/ml,did not have any effect
same,expression level of p53 (Y-5 clone),MM-4 cells; 25.03 μg/ml,does not influence
same,increased expression level of Bax compared with the control,MM-4 cells; 25.03 μg/ml,8.9 times
same,increased expression level of p53 (DO-7 clone) compared with the control,MM-4 cells; 25.03 μg/ml,9.5 times
same,expression of anti-apoptotic protein Bcl-2,MM-4 cells; concentration not given,does not have any effect
same,fatty degeneration (exocrine part of the pancreas),[9]; DIO group,Disappearance
same,"divalent metal ions (zinc, copper, manganese) in muscles, kidneys and liver",[9]; animal models of obesity,restoration of their normal physiological levels
same,activity of antioxidant enzymes (superoxide dismutase and catalase),[9]; animals on a high fat diet,increased activity
same,levels of lipid peroxidation products and protein oxidative modification,[9]; animals on a high fat diet,decrease
same,central and peripheral serotonin levels compared to untreated animal models of obesity,[9]; animals on a high-fat diet,restoration
same,decrease of the area of hepatocytes compared to the group with obesity,[9]; animals on a high-fat diet,41%
same,increase of the cross-sectional surface area of the islets of Langerhans compared with the obesity group,[9]; animals on a high-fat diet,43%
same,lipid metabolism,[9]; animals on a high-fat diet,Improvement
same,serotonin levels in the brain,[9]; animals on a high-fat diet,An increase
same,weight and the amount of food consumed compared to the untreated animals,[9]; animals on a high-fat diet,Reduction
same,IFN-γ level,[10]; control animals (C),4.6 ± 0.6 RU/mg protein
same,IL-1 level,[10]; control animals (C),3.5 ± 0.7 RU/mg protein
same,IL-4 level,[10]; control animals (C),4.6 ± 0.8 RU/mg protein
same,IL-6 level,[10]; control animals (C),4.3 ± 0.2^ RU/mg protein
same,IL-10 level,[10]; control animals (C),4.1 ± 0.5 RU/mg protein
same,IL-12 level,[10]; control animals (C),0.3 ± 0.04 RU/mg protein
same,TGF level,[10]; control animals (C),4.1 ± 0.4 RU/mg protein
same,IFN-γ level,[10]; diet induced obesity (DIO),4.1 ± 1.2 RU/mg protein
same,IL-1 level,[10]; diet induced obesity (DIO),4.2 ± 0.4 RU/mg protein
same,IL-4 level,[10]; diet induced obesity (DIO),5.6 ± 1.6 RU/mg protein
same,IL-6 level,[10]; diet induced obesity (DIO),5.1 ± 0.4 RU/mg protein
same,IL-10 level,[10]; diet induced obesity (DIO),6.8 ± 1.1 # RU/mg protein
same,IL-12 level,[10]; diet induced obesity (DIO),2.4 ± 0.06 # RU/mg protein
same,TGF level,[10]; diet induced obesity (DIO),5.7 ± 0.3 # RU/mg protein
same,decrease of glucose concentration,type 1 diabetes,26%
same,decrease of glycosylated hemoglobin,type 1 diabetes,30%
same,increase of serum insulin content,type 1 diabetes,13%
same,dopaminergic neuron loss,[11]; [17],Prevention
same,harmful side effects,[11]; [17],absence
same,local and systemic inflammation,[11]; [17],Inhibition
same,metabolic activity of microglia,[11]; [17],increase
same,number of dopaminergic neurons in the substantia nigra,"[11]; LPS-induced Parkinson's disease, rats",virtually full restoration
same,systemic inflammatory responses,"[11]; therapeutic administration, LPS-induced parkinsonism",reduces
same,cognitive function,[12]; AD models,significantly improved
same,"body weight, water and feed intake",[12]; AD rats treated for 10 days,restored
same,neuroinflammation,[12]; Aβ1-40-induced AD,almost complete resolution
same,staining intensity of TH-immuno-positive cells,"[12]; Aβ1-40 AD rats, hippocampal dopaminergic neurons",increased
same,absolute number of circulating leukocytes,[12]; [18],complete normalization
same,neutrophilic lymphocytic coefficient (NLC),[12]; [18],complete normalization
same,MBC,"S. aureus ATCC 25923 [1]; 37° C. 24 h, Table 4",0.023* mcg ^64Zne/ml
same,MBC,"E. coli ATCC 25922 [2]; 37° C. 24 h, Table 4",0.73* mcg ^64Zne/ml
same,MBC,"P. aeruginosa ATCC 27853 [3]; 37° C. 24 h, Table 4",>750 mcg ^64Zne/ml
same,bacteriostatic activity (in words),P. aeruginosa ATCC 27853 [6],best results
same,glucose concentration compared to the control group,[13],drop
same,increase of insulin producing pancreatic islets area,[13],more than 100%
same,IFN-γ level,[14]; control animals (C),5.0 ± 0.8^ RU/mg protein
same,IL-1 level,[14]; control animals (C),4.9 ± 1.7^ RU/mg protein
same,IL-4 level,[14]; control animals (C),5.0 ± 0.4^ RU/mg protein
same,IL-6 level,[14]; control animals (C),5.4 ± 0.3^ RU/mg protein
same,IL-10 level,[14]; control animals (C),4.9 ± 0.2^ RU/mg protein
same,IL-12 level,[14]; control animals (C),1.0 ± 0.03 RU/mg protein
same,TGF level,[14]; control animals (C),5.1 ± 0.6^ RU/mg protein
same,IFN-γ level,[14]; diet induced obesity (DIO),4.9 ± 0.8 RU/mg protein
same,IL-1 level,[14]; diet induced obesity (DIO),5.8 ± 1.8 RU/mg protein
same,IL-4 level,[14]; diet induced obesity (DIO),5.1 ± 1.2 RU/mg protein
same,IL-6 level,[14]; diet induced obesity (DIO),6.1 ± 0.7 RU/mg protein
same,IL-10 level,[14]; diet induced obesity (DIO),5.8 ± 0.8 RU/mg protein
same,IL-12 level,[14]; diet induced obesity (DIO),1.99 ± 0.01 RU/mg protein
same,TGF level,[14]; diet induced obesity (DIO),5.2 ± 0.9 RU/mg protein
same,assessment of cytotoxicity and antiviral activity for anti-EBV infection,Epstein-Barr virus [15],most promising
same,decrease in the activity of active MMP-2 compared with the control,MMP-2; 16.69 μg/ml,66.8%
same,decrease in the activity of latent pro-MMP-2 compared with the control,MMP-2; 16.69 μg/ml,76.5%
same,suppression of the activity of MMP-2 compared with the control,MMP-2; 25.03 μg/ml,76%
same,decrease in the activity of active MMP-9 compared with the control,MMP-9,23.8%
same,decrease in the activity of latent pro-MMP-9 compared with the control,MMP-9,61.2%
O=C(O)CC(O)(CC(=O)O)C(=O)O [^64Zne citrate],RNA and DNA synthesis,RNA and DNA synthesis,Inhibition
same,assessment of cytotoxicity and antiviral activity for anti-EBV infection,Epstein-Barr virus [16],most promising
